Results as given in paper PMC9926234, “Iterative computational design and crystallographic screening identifies potent inhibitors targeting the Nsp3 macrodomain of SARS-CoV-2” (Proceedings of the National Academy of Sciences of the …, 2023).
Several values for one entry are separate records, joined by “and”; a condition that tells them apart may be missing. Identical values can stand only once. Like-named read-outs stand apart in the source and are kept apart here.

Columns and labels:
Assay type in all cases: binding
SARS-CoV-2 NSP3 Mac1 [1] = target: T1, SARS-CoV-2 NSP3 Mac1 (Severe acute respiratory syndrome coronavirus 2, UniProt P0DTD1); test: biochemical; settings: for Ki: Ki estimation from HTRF-derived IC50, Cheng-Prusoff, peptide 400nM, Kd 2.68µM
SARS-CoV-2 NSP3 Mac1 [2] = target: T1, SARS-CoV-2 NSP3 Mac1; settings: for Refined occupancy: ligand occupancy after refinement (phenix.refine)
SARS-CoV-2 NSP3 Mac1 [3] = target: T1, SARS-CoV-2 NSP3 Mac1; design: contains a conserved macrodomain enzyme (Mac1); settings: for Spearman est (compound concentration vs apparent Tm): DSF dose responsiveness, 1 µM nsp3 mac1, adj p given
Method in brief: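 Differential scanning fluorimetry using 5 µM Fluorescent Yellow dye in place of SYPRO Orange. Compounds run in triplicate at seven two-fold dilutions from 1,000 or 100 μM, with ΔTma taken against a DMSO control in the same plate region. Dose-response significance assessed by Spearman's coefficient between concentration and ΔTma.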

[4] = HTRF ADPr-peptide displacement from SARS-CoV-2 Mac1, read-out: IC50
[5] = HTRF, several values in a cell are separate determinations, read-out: IC50
[6] = PanDDA event map, 1 minus background density correction, crystal soaking of Mac1
[7] = overall hit flag: binding in crystallographic soaking or the HTRF-based binding assay
[8] = maximal thermal upshift vs DMSO control
[9] = true hit = binding in crystallographic soaking or the HTRF-based binding assay
[10] = PanDDA 1-BDC value of the event, crystal soak, compound concentration 100 mM, per dataset
[11] = crystal soak, compound concentration 100 mM, per dataset
[12] = ligand modeled in the crystal structure, crystal soak, compound concentration 100 mM, per dataset
[13] = ligand modeled from this dataset, compound concentration 100 mM, Echo dispense volume 40 or 80 nl
[14] = IC50, HTRF ADPr-peptide displacement from SARS-CoV-2 Mac1

Compound | IC50 (SARS-CoV-2 NSP3 Mac1 [1]; [4]) | Ki (SARS-CoV-2 NSP3 Mac1 [1]; read-out: Ki***) [µM] | 1-BDC (SARS-CoV-2 NSP3 Mac1 [2]; [6]) | Refined occupancy (SARS-CoV-2 NSP3 Mac1 [2]; crystal soaking of Mac1) | HIT* (SARS-CoV-2 NSP3 Mac1 [2]; [7]) | Spearman est (compound concentration vs apparent Tm) (SARS-CoV-2 NSP3 Mac1 [3]) | DSF max dTma (SARS-CoV-2 NSP3 Mac1 [3]; [8]) [°C] | IC50 (SARS-CoV-2 NSP3 Mac1 [1]; HTRF, read-out: IC50) [µM] | HIT* (SARS-CoV-2 NSP3 Mac1 [2]; [9]) | DSF max dTma (SARS-CoV-2 NSP3 Mac1 [3]; maximal thermal upshift) | 1-BDC (SARS-CoV-2 NSP3 Mac1 [2]; [10]) | PanDDA hit? (SARS-CoV-2 NSP3 Mac1 [2]; [11]) | Modeled? (SARS-CoV-2 NSP3 Mac1 [2]; [12]) | Modeled? (SARS-CoV-2 NSP3 Mac1 [2]; [13]) | other results
OC[C@H]1CCCN(c2ncnc3[nH]c4cc(F)ccc4c23)C1 [Z7873] | ≤ 90 µM and 90 µM | 78.6 | 0.06 | 12 | Y | 0.95 | 1.5 | – | – | – | – | – | – | – | IC50 (SARS-CoV-2 NSP3 Mac1 [1]; [5]): 90.3 µM; 1-BDC (SARS-CoV-2 NSP3 Mac1 [2]; PanDDA event map background density correction, crystal soak, Compound_concentration 100 mM, PanDDA run dmso_34): 0.06; PanDDA hit? (SARS-CoV-2 NSP3 Mac1 [2]; crystal soak, Compound_concentration 100 mM, Echo dispense 40 nl, PanDDA run dmso_34): TRUE; Modeled? (SARS-CoV-2 NSP3 Mac1 [2]; ligand modeled in crystal structure, crystal soak, Compound_concentration 100 mM, PanDDA run dmso_34): TRUE
O=C(OCCN1CCOC1=O)c1ncnc2[nH]ccc12 [Z8207] | 60 µM | 52.3 | 0.38 | 76 | – | 0.99 | – | 60.1 | Y | 2.51 ˚C | – | – | – | – | –
CNC(=O)Nc1ccc(C(=O)NC2c3ccccc3CC2C(=O)O)cc1 (stereo not shown) [Z8515] | 7.9 µM | 9 | 0.09 | 18 | Y | 0.98 | 3.71 | – | – | – | 0.09 | TRUE | TRUE | – | IC50 (SARS-CoV-2 NSP3 Mac1 [1]; [5]): 10.3 µM
COC(=O)Nc1ccc(C(=O)NC2c3ccccc3CC2C(=O)O)cc1 (stereo not shown) [Z8531] | > 250 µM | – | 0.04 | 8 | Y | 0.72 | 0.6 | – | – | – | 0.04 | TRUE | TRUE | – | –
O=C(NC1c2cccc(O)c2CC1C(=O)O)c1ccc(Nn2ccnc2)cc1 (stereo not shown) [Z8539_0011] | 19 µM | 16.5 | 0.35 | 70 | – | 0.18 | – | – | Y | 1.23 ˚C | 0.25 | TRUE | – | TRUE | –
O=C(Nc1ccccc1)Nc1ccc(C(=O)NC2c3cccc(O)c3CC2C(=O)O)cc1 (stereo not shown) [Z8539_0023] | – | – | 0.17 | 34 | – | 0.81 | – | – | Y | 9.9 ˚C | 0.17 | TRUE | TRUE | – | IC50 (SARS-CoV-2 NSP3 Mac1 [1]; [14]): 0.5 µM; Ki (SARS-CoV-2 NSP3 Mac1 [1]; Ki***): 0.4 µM; thermal upshift (SARS-CoV-2 NSP3 Mac1 [3]; DSF): 9 °C
O=C(Nc1ccc(C(=O)NCc2c(C(=O)O)sc3ccccc23)cc1)NC1CC1 [Z8539_0025] | 20 µM | 17.8 | 0.24 | 48 | – | 0.17 | – | 20.4 | Y | 0.91 ˚C | 0.24 | TRUE | – | TRUE | –
O=C(Nc1ccc(C(=O)NCc2c(C(=O)O)oc3ccccc23)cc1)NC1CC1 [Z8539_0026] | 84 µM | 72.9 | 0.33 | 66 | – | 0.37 | – | 83.8 | Y | 3.52 ˚C | 0.3 | TRUE | – | TRUE | –
O=C(Nc1ccc(C(=O)NCc2c(C(=O)O)[nH]c3ccccc23)cc1)NC1CC1 [Z8539_0027] | – | – | 0.23 | 46 | – | 0.7 | – | – | Y | 6.22 ˚C | 0.29 | TRUE | – | TRUE | IC50 (SARS-CoV-2 NSP3 Mac1 [1]; [14]): 7.6 µM; Ki (SARS-CoV-2 NSP3 Mac1 [1]; Ki***): 6.6 µM
NC(=O)Nc1ccc(C(=O)NC2c3cccc(O)c3CC2C(=O)O)cc1 (stereo not shown) [Z8539_0041] | – | 1.1 | 0.24 | 48 | – | 0.6 | – | 1.3 | Y | 6 ˚C | 0.24 | TRUE | TRUE | – | binding to Mac1 in the HTRF assay, result in words (SARS-CoV-2 NSP3 Mac1 [1]): did not substantially change binding affinity
